Measured values as given in US8906349B2, “Oral care composition” (priority 2009, dated 2014).
Converted amounts (≈) assume the structure as drawn. Read-outs that look alike come from different tables or passages of the source.

Tests used:
Type in all cases: cell-based
A. viscosus biofilm [1] = assay: Bioenhancement assay: BEC50 of antimicrobial agents with or without bisabolol, crystal violet, 24 h (Examples 4 and 5)
A. viscosus = assay: Minimum inhibitory concentration, serial dilution in 96-well plate, 24 h; settings: Actinomyces viscosus, read-out: MIC (A. viscosus)
Method: The minimum inhibitory concentration for actives was determined by incubating Actinomyces viscosus bacteria with serial dilutions of the active for 24 hours and determining the lowest concentration at which growth of this species was inhibited. Briefly, 100 μl final volume actives were serially diluted in 0.5× tryptic soy broth (TSB) across duplicate wells of a 96-well flat bottom microtiter plate. An overnight culture of bacteria was diluted to an OD610 ˜0.2 and 100 μl of this was added to each well. Plates were incubated overnight at 37° C. OD610 was read for each well and the MIC was determined as the concentration of active in the last well where bacterial growth was inhibited.

A. viscosus biofilm [2] = assay: Biofilm Eradication Concentration (BEC50), crystal violet biomass, compositions serially diluted (Example 3); settings: FIG. 2; for BEC(50) alone: active tested alone, lowest concentration with >50% reduction in biomass vs media control; for BEC50 in combination: bisabolol (0.7%) and Triclosan (0.05%) composition serially diluted, concentration of the named active in the combination
Method: A composition comprising bisabolol, a composition comprising the antibacterial agent Triclosan and a composition comprising both bisabolol and Triclosan were tested for antibiofilm activity.
A composition comprising bisabolol (0.7%), a composition comprising Triclosan (0.05%) and a composition comprising bisabolol (0.7%) and Triclosan (0.05%) were each serially diluted in a 96-well plate. A. viscosus cultures were added to each well and plates were incubated at 37° C. to allow biofilm formation to occur. Following biofilm formation, supernatants were removed and wells were stained with 0.6% crystal violet for 15 min. Biofilm biomass was quantified by reading the absorbance of each well at 590 nm and the percentage reduction in biomass relative to a control of media alone was calculated.
BEC50 is defined as the minimum concentration at which a greater than 50% reduction of biofilm formation is observed.

[3] = system: five-species biofilm: A. viscosus, Lactobacillus casei, Streptococcus oralis, Fusobacterium nucleatum and Veillonella parvula; assay: Multispecies biofilm formation on saliva coated hydroxyapatite disks, 48 h, OD610 (Example 6); settings: 20 ppm of Triclosan alone, FIG. 5
Method: The ability of compositions comprising Triclosan and bisabolol either alone or in combination to inhibit biofilm formation were tested in a multispecies model where the biofilms comprised five representative oral bacterial species: A. viscosus, Lactobacillus casei, Streptococcus oralis, Fusobacterium nucleatum and Veillonella parvula. Saliva coated hydroxyapatite (HAP) disks were inoculated with this five-species mix of bacteria in the presence Triclosan alone, bisabolol alone or with a 2:1 concentration of bisabolol:Triclosan. Disks were incubated for 48 h to allow biofilm formation to occur. Biofilm containing disks are were incubated in 1 ml of 0.25% trypsin solution for 45 min at 37° C. to release the biofilm and biomass was read as the OD610 of the trypsin solution.
In order to determine any antibiofilm effect beyond that of Triclosan, it was necessary to reduce the concentration of Triclosan below the inhibitory concentration. […]

A. viscosus biofilm [4] = assay: Inhibition of single-species biofilm formation by serial dilutions of bisabolol (Example 2); settings: bisabolol alone, 24 hours, FIG. 1
Method: The effect of different concentrations of bisabolol on the inhibition of A. viscosus biofilm formation was tested. A. viscosus bacteria were grown for 24 hours in the presence of serial dilutions of bisabolol or an equivalent concentration of EtOH. Wells were stained to visualize biofilm formation. The results are shown in FIG. 1 where the x-axis represents the concentration of bisabolol (or an equivalent solution of EtOH in media) and the y-axis represents the percent reduction in biofilm relative to control wells grown in media alone.

[5] = Table 2, absence of bisabolol, FIG. 4a
[6] = Table 2, presence of 50 ppm bisabolol, FIG. 4a
[7] = first Table 3, said to be raw data of FIG. 4b, absence of bisabolol
[8] = first Table 3, said to be raw data of FIG. 4b, presence of 50 ppm bisabolol

Compound | BEC(50) alone (A. viscosus biofilm [1]; [5]) | BEC(50) w/bisabolol (A. viscosus biofilm [1]; [6]) | BEC(50) alone (A. viscosus biofilm [1]; [7]) | BEC(50) w/bisabolol (A. viscosus biofilm [1]; [8]) | MIC (A. viscosus) | BEC(50) alone (A. viscosus biofilm [2]) | BEC50 in combination (A. viscosus biofilm [2]) | BEC50 of Triclosan alone (A. viscosus biofilm [1]; Example 4, no bisabolol, FIG. 3) | BEC50 of Triclosan in the composition comprising bisabolol (A. viscosus biofilm [1]; Example 4, with 5 ppm bisabolol, FIG. 3) | reduction in biofilm formation [3] | MIC (A. viscosus; lowest concentration inhibiting growth, overnight at 37° C., 0.5× TSB) | lowest concentration inhibiting formation of single-species biofilms (A. viscosus biofilm [4])
CCCCc1ccc(O)c(-c2cc(CCCC)ccc2O)c1 [butyl magnolol] | 0.5859 | 0.5859 | 0.09766 | 0.09766 |  |  |  |  |  |  |  | 
[F][Sn][F] [stannous flouride, stannous fluoride] | 312.5 | 86.06 | 0 | 75.56 |  |  |  |  |  |  |  | 
Oc1cc(Cl)ccc1Oc1ccc(Cl)cc1Cl [Triclosan] | 1.465 | 0.4883 | 0.2819 | 0 | 3.5 µg/mL (≈ 12.1 µM) | approximately 3.9 ppm | 1.95 ppm | 4.13 ppm | 1.78 ppm | > 60% |  | 
CCCCCCCCCCCCCCCC[n+]1ccccc1 [CPC, cetyl pyridinium chloride] | 0.6836 | 0.4883 | 0.1196 | 1.7999E−07 |  |  |  |  |  |  |  | 
CCCc1ccc(O)c(-c2ccc(O)c(CCC)c2)c1 [propyl honokiol] | 2.344 | 1.367 | 0.3906 | 0.2392 |  |  |  |  |  |  |  | 
CC(C)=CCC[C@](C)(O)C1CC=C(C)CC1 (some centres unmarked) [Bisabolol] |  |  |  |  |  | 110 ppm | 27.3 ppm |  |  |  | 125 µg/mL (≈ 562 µM) | 110 ppm
O=C([O-])CC(O)(CC(=O)[O-])C(=O)[O-].O=C([O-])CC(O)(CC(=O)[O-])C(=O)[O-].[Zn+2].[Zn+2].[Zn+2] [zinc citrate] | 208.3 | 19.53 | 52.08 | 9.766 |  |  |  |  |  |  |  | 
C=CCc1ccc(O)c(-c2cc(CC=C)ccc2O)c1 [magnolol] | 3.906 | 0.8789 | 1.07 | 0.2847 |  |  |  |  |  |  |  | 
[Cl][Sn][Cl] [stannous chloride] | 234.375 | 161.1 | 45.11 | 59.87 |  |  |  |  |  |  |  | 
C=CCc1ccc(O)c(-c2ccc(O)c(CC=C)c2)c1 [honokiol] | 13.38 | 5.176 | 5.41 | 2.69 |  |  |  |  |  |  |  | 
catechin | 812.5 | 618.75 | 187.5 | 233.5 |  |  |  |  |  |  |  | 
